Measurements as given in patent publication US20130029970A1 (priority 2009, published 2013).

How the values were obtained:
human CB1 (hCB1) = target: T1, human CB1 (hCB1) (Homo sapiens, UniProt P21554); assay: 35S GTPγS binding assay, hCB1 agonist; assay type: biochemical; conditions: GTPγS agonist, HEK-293 membranes; read-out: hCB1 EC50 (GTPyS ag)
T1 construct: (cDNA clone) CNR01L000

human CB2 (hCB2) = target: T2, human CB2 (hCB2) (Homo sapiens, UniProt P34972); assay: 35S GTPγS binding assay, hCB2 agonist; assay type: biochemical; conditions: GTPγS agonist, HEK-293 membranes; read-out: hCB2 EC50 (GTPyS ag)
T2 construct: (cDNA clone) CNR0200000
Procedure, shortened: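 Agonist-stimulated [35S]GTPγS (0.1 nM) binding measured by scintillation proximity after 90 min at room temperature. Reaction buffer: 50 mM HEPES pH 7.4, 100 mM NaCl, 5 mM MgCl2, 0.001% saponin plus 20 uM GDP. Membranes (5 μg) came from transfected cells expressing hCB2 cDNA (pcDNA3.1+ vector).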

[1] = target: T3, recombinant human cannabinoid receptor CB1 (Homo sapiens, UniProt P21554); assay: Cannabinoid receptor radioligand binding assay, [3H]-CP 55,940 displacement, hCB1
T3 construct: (cDNA clone) CNR01L000
Procedure, shortened: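 Displacement of 0.5 nM [3H]-CP 55,940 (1 μM unlabeled CP 55,940 for nonspecific) measured by filtration and scintillation counting. Binding ran 90 min at room temperature in pH 7.5 Tris buffer with 0.1% fatty-acid-free BSA, using recombinant hCB1 HEK-293 membranes at 2-10 μg protein.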

T2 sequence (P34972 whole entry): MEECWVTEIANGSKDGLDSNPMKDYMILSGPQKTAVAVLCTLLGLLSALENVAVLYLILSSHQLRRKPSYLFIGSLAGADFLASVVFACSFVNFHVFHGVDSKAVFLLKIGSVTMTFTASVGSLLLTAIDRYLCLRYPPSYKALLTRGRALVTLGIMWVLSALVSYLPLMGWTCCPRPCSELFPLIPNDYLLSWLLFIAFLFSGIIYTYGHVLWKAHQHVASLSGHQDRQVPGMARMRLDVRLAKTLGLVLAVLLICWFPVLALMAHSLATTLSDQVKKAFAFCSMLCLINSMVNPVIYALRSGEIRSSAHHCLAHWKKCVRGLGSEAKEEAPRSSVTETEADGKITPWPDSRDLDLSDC
T3 sequence (P21554 whole entry): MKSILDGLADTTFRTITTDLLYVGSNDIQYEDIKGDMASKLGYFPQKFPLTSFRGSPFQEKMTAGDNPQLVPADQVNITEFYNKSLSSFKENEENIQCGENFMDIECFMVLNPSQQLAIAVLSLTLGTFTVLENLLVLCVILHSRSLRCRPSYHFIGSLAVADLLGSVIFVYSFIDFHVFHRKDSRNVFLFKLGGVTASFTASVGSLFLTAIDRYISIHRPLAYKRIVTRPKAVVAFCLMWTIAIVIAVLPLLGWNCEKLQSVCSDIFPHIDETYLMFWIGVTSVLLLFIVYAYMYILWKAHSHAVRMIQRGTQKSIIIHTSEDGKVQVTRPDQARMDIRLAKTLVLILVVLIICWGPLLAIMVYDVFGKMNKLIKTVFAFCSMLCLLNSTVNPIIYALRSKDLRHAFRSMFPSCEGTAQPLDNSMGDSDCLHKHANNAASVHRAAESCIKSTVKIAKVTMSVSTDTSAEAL
T1 sequence (P21554 whole entry): as above

SMILES	EC50 (human CB1 (hCB1))	EC50 (human CB2 (hCB2))	IC50 [1]
Cc1cc2cc(C(=O)c3cccc(Cl)c3Cl)sc2n1CCc1ccccc1 [Compound 30, (2,3-Dichlorophenyl)(5-methyl-6-phenethyl-6H-thieno[2,3-b]pyrrol-2-yl)methanone]	0.1 to 1 µM	< 0.1 µM	0.1 to 1 µM
Cc1cc2cc(C(=O)c3cccc(Cl)c3Cl)sc2n1CCN1CCN(C)CC1 [Compound 33, (2,3-Dichlorophenyl)(5-methyl-6-(2-(4-methylpiperazin-1-yl)ethyl)-6H-thieno[2,3-b]pyrrol-2-yl)methanone]	< 0.1 µM	–	> 10 µM
Cc1cc2cc(C(=O)c3cccc(Cl)c3Cl)sc2n1S(=O)(=O)N1CCOCC1 [Compound 45, (2,3-Dichlorophenyl)(5-methyl-6-(morpholinosulfonyl)-6H-thieno[2,3-b]pyrrol-2-yl)methanone]	0.1 to 1 µM	< 0.1 µM	< 0.1 µM
Cc1cc2cc(C(=O)c3cccc(Cl)c3Cl)sc2n1S(=O)(=O)CC1CCOCC1 [Compound 46, (2,3-Dichlorophenyl)(5-methyl-6-((tetrahydro-2H-pyran-4-yl)methylsulfonyl)-6H-thieno[2,3-b]pyrrol-2-yl)methanone]	< 0.1 µM	< 0.1 µM	< 0.1 µM
COc1ccc(C(=O)c2cc3cc(C)n(S(=O)(=O)N(C)C)c3s2)cc1 [Compound 51, 2-(4-Methoxybenzoyl)-N,N,5-trimethyl-6H-thieno[2,3-b]pyrrole-6-sulfonamide]	–	< 0.1 µM	1 to 10 µM
COc1ccc(C(=O)c2cc3cc(C)n(S(=O)(=O)N4CCOCC4)c3s2)cc1 [Compound 53, (4-methoxyphenyl)(5-methyl-6-(morpholinosulfonyl)-6H-thieno[2,3-b]pyrrol-2-yl)methanone]	0.1 to 1 µM	< 0.1 µM	< 0.1 µM
Cc1cc2cc(C(=O)c3ccc(F)cc3)sc2n1CCN1CCOCC1 [Compound 54, (4-Fluorophenyl)(5-methyl-6-(2-morpholinoethyl)-6H-thieno[2,3-b]pyrrol-2-yl)methanone]	–	< 0.1 µM	1 to 10 µM
CCS(=O)(=O)n1c(C)cc2cc(C(=O)c3ccc(OC)cc3)sc21 [Compound 56, (6-(Ethylsulfonyl)-5-methyl-6H-thieno[2,3-b]pyrrol-2-yl)(4-methoxyphenyl)methanone]	–	< 0.1 µM	> 10 µM
COc1ccc(C(=O)c2cc3cc(C)n(S(=O)(=O)CC4CCOCC4)c3s2)cc1 [Compound 57, (4-Methoxyphenyl)(5-methyl-6-((tetrahydro-2H-pyran-4-yl)methylsulfonyl)-6H-thieno[2,3-b]pyrrol-2-yl)methanone]	< 0.1 µM	< 0.1 µM	< 0.1 µM
COc1ccc(C(=O)c2cc3cc(C)n(CCN4CCOCC4)c3s2)cn1 [Compound 58, (6-Methoxypyridin-3-yl)(5-methyl-6-(2-morpholinoethyl)-6H-thieno[2,3-b]pyrrol-2-yl)methanone]	–	< 0.1 µM	> 10 µM
Cc1cc2cc(C(=O)c3ccc(C(F)(F)F)cc3)sc2n1CCN1CCOCC1 [Compound 60, (5-Methyl-6-(2-morpholinoethyl)-6H-thieno[2,3-b]pyrrol-2-yl)(4-(trifluoromethyl)phenyl)methanone]	–	1 to 10 µM	> 10 µM
COc1ccc(C(=O)c2cc3cc(C)n(CC4CCOCC4)c3s2)cc1 [Compound 62, (4-Methoxyphenyl)(5-methyl-6-((tetrahydro-2H-pyran-4-yl)methyl)-6H-thieno[2,3-b]pyrrol-2-yl)methanone]	0.1 to 1 µM	< 0.1 µM	1 to 10 µM
COc1ccc(C(=O)c2cc3cc(C)n(CCN4CCOCC4)c3s2)c(Cl)c1 [Compound 70, (2-Chloro-4-methoxyphenyl)(5-methyl-6-(2-morpholinoethyl)-6H-thieno[2,3-b]pyrrol-2-yl)methanone]	–	< 0.1 µM	0.1 to 1 µM
COc1ccc(C(=O)c2cc3cc(C)n(CCN4CCCCC4)c3s2)cc1 [Compound 78, (4-Methoxyphenyl)(5-methyl-6-(2-(piperidin-1-yl)ethyl)-6H-thieno[2,3-b]pyrrol-2-yl)methanone]	< 0.1 µM	< 0.1 µM	1 to 10 µM
COc1ccc(C(=O)c2cc3cc(C)n(CCC4CCOCC4)c3s2)cc1 [Compound 82, (4-Methoxyphenyl)(5-methyl-6-(2-(tetrahydro-2H-pyran-4-yl)ethyl)-6H-thieno[2,3-b]pyrrol-2-yl)methanone]	0.1 to 1 µM	< 0.1 µM	0.1 to 1 µM
COc1ccc(C(=O)c2cc3cc(C)n(Cc4ccccc4)c3s2)cc1 [Compound 84, (6-Benzyl-5-methyl-6H-thieno[2,3-b]pyrrol-2-yl)(4-methoxyphenyl)methanone]	–	0.1 to 1 µM	1 to 10 µM

SMILES	EC50 (human CB1 (hCB1))	EC50 (human CB2 (hCB2))	IC50 [1]
COc1ccc(C(=O)c2cc3cc(C)n(CCCCl)c3s2)c(Cl)c1 [Compound 85, (2-Chloro-4-methoxyphenyl)(6-(3-chloropropyl)-5-methyl-6H-thieno[2,3-b]pyrrol-2-yl)methanone]	–	< 0.1 µM	1 to 10 µM
COc1ccc(C(=O)c2cc3cc(C)n(CCCNS(C)(=O)=O)c3s2)c(F)c1 [Compound 87, N-(3-(2-(2-Fluoro-4-methoxybenzoyl)-5-methyl-6H-thieno[2,3-b]pyrrol-6-yl)propyl)methanesulfonamide]	–	< 0.1 µM	> 10 µM
COc1ccc(C(=O)c2cc3cc(C)n(CCCNS(C)(=O)=O)c3s2)c(Cl)c1 [Compound 91, N-(3-(2-(2-Chloro-4-methoxybenzoyl)-5-methyl-6H-thieno[2,3-b]pyrrol-6-yl)propyl)methanesulfonamide]	–	< 0.1 µM	> 10 µM
COc1ccc(C(=O)c2cc3cc(C)n(CCN4CCOCC4)c3s2)c(C(F)(F)F)c1 [Compound 119, (4-Methoxy-2-(trifluoromethyl)phenyl)(5-methyl-6-(2-morpholinoethyl)-6H-thieno[2,3-b]pyrrol-2-yl)methanone]	0.1 to 1 µM	< 0.1 µM	1 to 10 µM
COc1ccc(C(=O)c2cc3cc(C)n(CCN4CCOCC4)c3s2)c(OC)c1 [Compound 120, (2,4-Dimethoxyphenyl)(5-methyl-6-(2-morpholinoethyl)-6H-thieno[2,3-b]pyrrol-2-yl)methanone]	0.1 to 1 µM	< 0.1 µM	0.1 to 1 µM
Cc1ccc(C(=N)c2cc3cc(C)n(CCN4CCOCC4)c3s2)cc1 [Compound 121, (5-methyl-6-(2-morpholinoethyl)-6H-thieno[2,3-b]pyrrol-2-yl)(p-tolyl)methanimine]	–	< 0.1 µM	1 to 10 µM
CCOc1ccc(C(=O)c2cc3cc(C)n(CCN4CCOCC4)c3s2)c(Cl)c1 [Compound 126, (2-chloro-4-ethoxyphenyl)(5-methyl-6-(2-morpholinoethyl)-6H-thieno[2,3-b]pyrrol-2-yl)methanone]	1 to 10 µM	< 0.1 µM	0.1 to 1 µM
COc1ccc(C(=O)c2cc3cc(C)n(CCN4CCOCC4)c3s2)cc1F [Compound 128, (3-fluoro-4-methoxyphenyl)(5-methyl-6-(2-morpholinoethyl)-6H-thieno[2,3-b]pyrrol-2-yl)methanone]	–	< 0.1 µM	1 to 10 µM
Cc1cc2cc(C(=O)c3ccc(C#N)cc3)sc2n1CCN1CCOCC1 [Compound 129, 4-(5-methyl-6-(2-morpholinoethyl)-6H-thieno[2,3-b]pyrrole-2-carbonyl)benzonitrile]	–	< 0.1 µM	1 to 10 µM
COc1cc(F)ccc1C(=O)c1cc2cc(C)n(CCN3CCOCC3)c2s1 [Compound 133, (4-fluoro-2-methoxyphenyl)(5-methyl-6-(2-morpholinoethyl)-6H-thieno[2,3-b]pyrrol-2-yl)methanone]	–	< 0.1 µM	0.1 to 1 µM
Cc1cc2cc(C(=O)c3ccc(F)cc3F)sc2n1CCN1CCOCC1 [Compound 135, (2,4-difluorophenyl)(5-methyl-6-(2-morpholinoethyl)-6H-thieno[2,3-b]pyrrol-2-yl)methanone]	–	0.1 to 1 µM	1 to 10 µM
COc1ccc(C(=O)c2cc3cc(C)n(CCN4CCOCC4)c3s2)c(C)n1 [Compound 136, (6-methoxy-2-methylpyridin-3-yl)(5-methyl-6-(2-morpholinoethyl)-6H-thieno[2,3-b]pyrrol-2-yl)methanone]	–	< 0.1 µM	1 to 10 µM
COc1ccc(C(O)(c2cc3cc(C)n(CCN4CCOCC4)c3s2)C(F)(F)F)cc1 (stereo not shown) [Compound 138, 2,2,2-trifluoro-1-(4-methoxyphenyl)-1-(5-methyl-6-(2-morpholinoethyl)-6H-thieno[2,3-b]pyrrol-2-yl)ethanol]	–	< 0.1 µM	1 to 10 µM
COc1ccc(C(c2cc3cc(C)n(CCN4CCOCC4)c3s2)C(F)(F)F)cc1 (stereo not shown) [Compound 141, 4-(2-(5-methyl-2-(2,2,2-trifluoro-1-(4-methoxyphenyl)ethyl)-6H-thieno[2,3-b]pyrrol-6-yl)ethyl)morpholine]	–	0.1 to 1 µM	1 to 10 µM
COc1ccc(C(=O)c2cc3cc(C)n(CCN4CCC(OC)C4)c3s2)cn1 (stereo not shown) [Compound 147, (6-methoxypyridin-3-yl)(6-(2-(3-methoxypyrrolidin-1-yl)ethyl)-5-methyl-6H-thieno[2,3-b]pyrrol-2-yl)methanone]	–	0.1 to 1 µM	> 10 µM
